Measured values: patent US20160194299A1 (priority 2013, published 2016)
Converted amounts (≈) assume the structure as drawn.

Legend:
Mtb [1] = experiment: microbe, parasite or virus in culture; type: cell-based, Mycobacterium tuberculosis; settings: for MIC: Mycobacterium tuberculosis, read-out: MIC (II)
Mtb [2] = experiment: microbe, parasite or virus in culture; type: cell-based, Mycobacterium tuberculosis
Mtb [3] = experiment: microbe, parasite or virus in culture; type: cell-based, Mycobacterium tuberculosis; remark: listed apart in the source
in vitro = settings: human

CCOC(=O)NC(=O)c1ccsc1NC(=O)c1ccnc(NC(=O)C(F)(F)F)c1 [Compound 193]
MIC (Mtb [1]): > 3 µg/mL

CCOC(=O)NC(=O)c1ccsc1NC(=O)c1ccc2[nH]ncc2c1 [Compound 350]
MIC (I) (Mtb [2]): C (key: A: <1 μg/mL; B: 1-3 μg/mL; C: >3 μg/mL)
MIC (III) (Mtb [3]): C (key: A: <5 μg/mL; B: 5-25 μg/mL; C: >25 μg/mL)
LC50 (IV) (Vero cells): B (key: A: >50 μg/mL; B: 50-25 μg/mL; C: <25 μg/mL)

CCOC(=O)NC(=O)c1ccsc1NC(=O)c1cn2c(-c3ccc(C(F)(F)F)cc3)cnc2cn1 [Compound 202]
MIC (Mtb [1]): > 3 µg/mL

CC(=O)Nc1cc(C(=O)Nc2sccc2S(C)(=O)=O)ccn1 [Compound 184]
MIC (Mtb [1]): > 3 µg/mL

Cc1c(-c2ccccc2)sc(NC(=O)c2nc3ccccc3s2)c1C(=O)N1CCOCC1 [Compound 169]
MIC (Mtb [1]): > 3 µg/mL

CCOC(=O)NC(=O)c1ccsc1NC(=O)c1ncccn1 [Compound 197]
MIC (Mtb [1]): > 3 µg/mL

O=C(NC(=O)c1ccsc1NC(=O)c1nc2ccccc2s1)OCCF [Compound 20]
MIC (I) (Mtb [2]): A (key: A: <1 μg/mL; B: 1-3 μg/mL; C: >3 μg/mL)
LC50 (IV) (Vero cells): C (key: A: >50 μg/mL; B: 50-25 μg/mL; C: <25 μg/mL)

CCOC(=O)NC(=O)c1ccsc1NC(=O)c1nc(=O)[nH]c2ccccc12 [Compound 141]
MIC (I) (Mtb [2]): C (key: A: <1 μg/mL; B: 1-3 μg/mL; C: >3 μg/mL)
MIC (III) (Mtb [3]): C (key: A: <5 μg/mL; B: 5-25 μg/mL; C: >25 μg/mL)
LC50 (IV) (Vero cells): A (key: A: >50 μg/mL; B: 50-25 μg/mL; C: <25 μg/mL)

CCOC(=O)NC(=O)c1ccsc1NC(=O)c1ccnc(C(F)(F)F)c1 [Compound 178]
MIC (Mtb [1]): > 3 µg/mL

CCOC(=O)NC(=O)c1ccsc1NC(=O)c1ccc2c(c1)NC(=O)CS2 [Compound 9]
MIC (Mtb [1]): 1 to 3 µg/mL (≈ 2.47 to 7.4 µM)

CC(=O)Nc1cc(C(=O)Nc2sccc2C(=O)N(C)C)ccn1 [Compound 205]
MIC (Mtb [1]): > 3 µg/mL

NC(=O)c1cnn(-c2ccccc2)c1NC(=O)c1nc2ccccc2s1 [Compound 179]
MIC (Mtb [1]): > 3 µg/mL

COC(=O)NC(=O)c1ccsc1NC(=O)c1ccc(Oc2ccccc2)cc1 [Compound 200]
MIC (Mtb [1]): > 3 µg/mL

CCOC(=O)NC(=O)c1ccccc1NC(=O)c1ccnc(NC(C)=O)c1 [Compound 187]
MIC (Mtb [1]): > 3 µg/mL

CC(=O)Nc1cc(C(=O)Nc2sccc2C(=O)Nc2ccc(Cl)cc2)ccn1 [Compound 182]
MIC (Mtb [1]): > 3 µg/mL

CCOC(=O)NC(=O)c1ccsc1NC(=O)c1cncs1 [Compound 158]
MIC (Mtb [1]): > 3 µg/mL

CCOC(=O)NC(=O)c1ccsc1NC(=O)c1ccc(S(C)(=O)=O)c(N)c1 [Compound 150]
MIC (Mtb [1]): > 3 µg/mL

CCOC(=O)NC(=O)c1ccsc1NC(=O)c1n[nH]c2cc(C#N)ccc12 [Compound 128]
MIC (I) (Mtb [2]): C (key: A: <1 μg/mL; B: 1-3 μg/mL; C: >3 μg/mL)
MIC (III) (Mtb [3]): C (key: A: <5 μg/mL; B: 5-25 μg/mL; C: >25 μg/mL)
LC50 (IV) (Vero cells): A (key: A: >50 μg/mL; B: 50-25 μg/mL; C: <25 μg/mL)

CN1CCC(NC(=O)c2ccsc2NC(=O)c2nc3ccccc3s2)CC1 [Compound 255]
MIC (I) (Mtb [2]): C (key: A: <1 μg/mL; B: 1-3 μg/mL; C: >3 μg/mL)
MIC (III) (Mtb [3]): C (key: A: <5 μg/mL; B: 5-25 μg/mL; C: >25 μg/mL)
LC50 (IV) (Vero cells): A (key: A: >50 μg/mL; B: 50-25 μg/mL; C: <25 μg/mL)

CCOC(=O)NC(=O)c1ccsc1NC(=O)c1ccnc(NC(=O)OCc2ccccc2)c1 [Compound 154]
MIC (Mtb [1]): > 3 µg/mL

CCOC(=O)NC(=O)c1ccsc1NC(=O)c1nc2cc(Cl)ccc2s1 [Compound 52]
MIC (Mtb [1]): < 1 µg/mL
CC50 (in vitro): > 50 µg/mL

O=C(NC(=O)c1ccsc1NC(=O)c1cn2ccccc2n1)OC1CCCC1 [Compound 348]
MIC (I) (Mtb [2]): C (key: A: <1 μg/mL; B: 1-3 μg/mL; C: >3 μg/mL)
MIC (III) (Mtb [3]): C (key: A: <5 μg/mL; B: 5-25 μg/mL; C: >25 μg/mL)
LC50 (IV) (Vero cells): B (key: A: >50 μg/mL; B: 50-25 μg/mL; C: <25 μg/mL)

CCOC(=O)NC(=O)c1ccsc1NC(=O)c1cnc2[nH]ccc2c1 [Compound 159]
MIC (II) (Mtb [1]): C (key: A: <1 μg/mL; B: 1-3 μg/mL; C: >3 μg/mL)

CCOC(=O)NC(=O)c1ccsc1NC(=O)c1c(F)cc(F)cc1F [Compound 176]
MIC (Mtb [1]): > 3 µg/mL

CC(=O)Nc1cc(C(=O)Nc2nnc(C(F)(F)F)s2)ccn1 [Compound 190]
MIC (Mtb [1]): > 3 µg/mL

CCOC(=O)NC(=O)c1ccsc1NC(=O)c1ccc2[nH]nnc2c1 [Compound 363]
MIC (I) (Mtb [2]): C (key: A: <1 μg/mL; B: 1-3 μg/mL; C: >3 μg/mL)
MIC (III) (Mtb [3]): C (key: A: <5 μg/mL; B: 5-25 μg/mL; C: >25 μg/mL)
LC50 (IV) (Vero cells): B (key: A: >50 μg/mL; B: 50-25 μg/mL; C: <25 μg/mL)

CCOC(=O)NC(=O)c1ccsc1NC(=O)c1ccnc(N(C)C)c1 [Compound 168]
MIC (Mtb [1]): > 3 µg/mL
